Measurements: ChEMBL document CHEMBL1201862, “PubChem BioAssay data set” (2004)
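Five concentrations, 48 hours, 96-well plates. Here, GI50 denotes the concentration required for 50% inhibition of growth.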 The source made the active and inactive calls. Cut-off read from the data, not from the text of the source: active = GI50 up to about 1.1 µM and inactive = higher.

Experiments:
Experiment in all cases: NCI-60 cell line screen, 48 h
CAKI-1 = tested on: CAKI-1
SK-MEL-2 = tested on: SK-MEL-2
HCT-116 = tested on: HCT-116
RPMI-8226 = tested on: RPMI-8226
OVCAR-4 = tested on: OVCAR-4
SW-620 = tested on: SW-620
SF-539 = tested on: SF-539
SK-MEL-28 = tested on: SK-MEL-28
MOLT-4 = tested on: MOLT-4
TK-10 = tested on: TK-10
HOP-92 = tested on: HOP-92
SF-268 = tested on: SF-268
SNB-75 = tested on: SNB-75
SN12C = tested on: SN12C
SR = tested on: SR

Measured: GI50

COc1ccc(/N=N/c2c(-c3ccccc3)nn(C(=O)CC(=O)Nc3ccc(OC)cc3)c2-c2ccccc2)cc1
inactive: CAKI-1 > 100 µM | SK-MEL-2 88.3 µM | HCT-116 60 µM | RPMI-8226 > 100 µM | OVCAR-4 > 100 µM | SW-620 > 100 µM | SF-539 18.6 µM | SK-MEL-28 > 100 µM | MOLT-4 31.8 µM | TK-10 52.7 µM | HOP-92 16 µM | SF-268 48.5 µM | SNB-75 16 µM | SN12C > 100 µM

COc1ccc2oc(C(=O)O)c3c2c1CCC3
inactive: CAKI-1 > 100 µM | HCT-116 > 100 µM | RPMI-8226 > 100 µM | OVCAR-4 > 100 µM | SW-620 > 100 µM | SF-539 > 100 µM | SK-MEL-28 > 100 µM | MOLT-4 > 100 µM | TK-10 > 100 µM | HOP-92 42.5 µM | SNB-75 > 100 µM | SN12C > 100 µM

O=c1[nH]c2cc([N+](=O)[O-])ccc2nc1/C(=N\NO)C(O)c1ccc([N+](=O)[O-])cc1 (stereo not given)
inactive: CAKI-1 50.2 µM | SR > 100 µM | HCT-116 > 100 µM | RPMI-8226 > 100 µM | OVCAR-4 > 100 µM | SW-620 > 100 µM | SF-539 31.3 µM | SK-MEL-28 > 100 µM | MOLT-4 > 100 µM | HOP-92 > 100 µM | SF-268 > 100 µM | SNB-75 > 100 µM | SN12C 98.9 µM

O=C1/C(=C/c2ccccc2)CNC/C1=C\c1ccccc1
active: SR 0.659 µM | HCT-116 0.184 µM | RPMI-8226 0.221 µM | SW-620 0.441 µM | MOLT-4 0.429 µM
inactive: CAKI-1 5.65 µM | SK-MEL-2 3.21 µM | OVCAR-4 1.43 µM | SF-539 1.56 µM | SK-MEL-28 1.92 µM | TK-10 2.4 µM | HOP-92 8.13 µM | SF-268 2.2 µM | SNB-75 3.38 µM | SN12C 1.69 µM

NC(=O)CCC(Nc1c2ccccc2[n+]([O-])c2ccccc12)C(=O)O (stereo not given)
inactive: SK-MEL-2 > 100 µM | HCT-116 38.3 µM | RPMI-8226 18.6 µM | OVCAR-4 84.1 µM | SW-620 > 100 µM | SK-MEL-28 26.4 µM | MOLT-4 55.1 µM | TK-10 > 100 µM | SF-268 64.7 µM | SNB-75 26.7 µM | SN12C 71.8 µM

C/C(=N\NS(=O)(=O)c1c(C)cc(C)cc1C)c1ccc[n+]([O-])n1
inactive: CAKI-1 4.78 µM | SR 22.3 µM | HCT-116 13.1 µM | RPMI-8226 11.7 µM | OVCAR-4 12.8 µM | SW-620 8.05 µM | SF-539 13.6 µM | SK-MEL-28 13.3 µM | MOLT-4 14.5 µM | HOP-92 9.95 µM | SF-268 20.1 µM | SNB-75 16.9 µM | SN12C 14.9 µM

CC(Nc1ccc(S(=O)(=O)NC(=N)N)cc1)c1c2ccccc2nc2ccccc12 (stereo not given)
inactive: CAKI-1 19 µM | SK-MEL-2 22.5 µM | SR 14.2 µM | HCT-116 > 10 µM | RPMI-8226 16.3 µM | OVCAR-4 10.1 µM | SW-620 41.3 µM | SF-539 22.9 µM | SK-MEL-28 44.9 µM | MOLT-4 14.6 µM | TK-10 47.4 µM | HOP-92 18.5 µM | SF-268 31 µM | SNB-75 26.8 µM | SN12C 30 µM

C/C=C/C=C\C(=O)C1c2cccc(O)c2C(=O)c2c(O)cc(C)cc21 (stereo not given)
active: SK-MEL-2 1.01 µM | SF-539 0.432 µM | SF-268 0.705 µM
inactive: CAKI-1 2.08 µM | HCT-116 1.52 µM | RPMI-8226 2.14 µM | OVCAR-4 1.7 µM | SW-620 1.19 µM | SK-MEL-28 1.69 µM | MOLT-4 2.92 µM | TK-10 1.7 µM | HOP-92 1.39 µM | SNB-75 1.29 µM | SN12C 2.33 µM

O=C1c2ccccc2CC1C1(O)C(=O)Nc2ccccc21 (stereo not given)
inactive: CAKI-1 > 100 µM | SK-MEL-2 > 100 µM | HCT-116 > 100 µM | RPMI-8226 > 100 µM | OVCAR-4 > 100 µM | SW-620 > 100 µM | SF-539 > 100 µM | SK-MEL-28 > 100 µM | MOLT-4 > 100 µM | TK-10 > 100 µM | HOP-92 > 100 µM | SF-268 > 100 µM | SNB-75 87.3 µM | SN12C > 100 µM

COc1cc(/C=C2\Cc3ccccc3C2=O)cc(OC)c1OC
inactive: CAKI-1 > 100 µM | SK-MEL-2 > 100 µM | HCT-116 > 100 µM | RPMI-8226 > 100 µM | OVCAR-4 > 100 µM | SW-620 > 100 µM | SF-539 > 100 µM | SK-MEL-28 > 100 µM | MOLT-4 > 100 µM | TK-10 > 100 µM | HOP-92 77.3 µM | SF-268 > 100 µM | SNB-75 51.5 µM | SN12C > 100 µM

CC(C)(C)[C@H]1CC[C@@](O)(c2ccccc2)CC1.CC(C)(C)[C@H]1CC[C@](O)(c2ccccc2)CC1
inactive: SK-MEL-2 14.7 µM | SR 15.2 µM | HCT-116 22.2 µM | RPMI-8226 21.1 µM | SW-620 3.74 µM | SF-539 18.1 µM | SK-MEL-28 22.5 µM | MOLT-4 15.6 µM | TK-10 19.4 µM | SNB-75 24.3 µM | SN12C 18.8 µM

C1=Cc2nc1c(-c1ccccc1)c1ccc([n-]1)c(-c1ccccc1)c1nc(c(-c3ccccc3)c3ccc([n-]3)c2-c2ccccc2)C=C1.[Zn+2]
inactive: CAKI-1 > 100 µM | SK-MEL-2 > 100 µM | HCT-116 > 100 µM | RPMI-8226 75.7 µM | OVCAR-4 > 100 µM | SW-620 > 100 µM | SF-539 > 100 µM | SK-MEL-28 > 100 µM | MOLT-4 > 100 µM | TK-10 > 100 µM | HOP-92 > 100 µM | SF-268 > 100 µM | SNB-75 67.5 µM | SN12C > 100 µM

Cc1c(C(=O)CC(=O)C(=O)Nc2c(C(C)C)cccc2C(C)C)[n+]([O-])c2ccccc2[n+]1[O-]
inactive: CAKI-1 22 µM | SK-MEL-2 11.4 µM | HCT-116 2.81 µM | RPMI-8226 3.18 µM | OVCAR-4 3.48 µM | SW-620 3.87 µM | SF-539 4.43 µM | SK-MEL-28 13.7 µM | MOLT-4 2.9 µM | TK-10 26.1 µM | HOP-92 16.1 µM | SF-268 5.01 µM | SNB-75 14.4 µM | SN12C 3.15 µM

NC(=O)OCC(COc1ccc(Cl)cc1)OC(=O)c1ccccc1Cl (stereo not given)
inactive: CAKI-1 26.5 µM | SK-MEL-2 17.3 µM | SR 25.6 µM | HCT-116 17 µM | RPMI-8226 21.8 µM | SW-620 19 µM | SF-539 19.1 µM | SK-MEL-28 18.6 µM | MOLT-4 21 µM | TK-10 28.8 µM | HOP-92 17.1 µM | SF-268 24.8 µM | SNB-75 41.7 µM | SN12C 16.6 µM

O=C(CC(=O)c1cccc([N+](=O)[O-])c1)C(=O)Nc1nc([N+](=O)[O-])cs1
inactive: CAKI-1 83.8 µM | SK-MEL-2 > 100 µM | SR 83 µM | HCT-116 > 100 µM | RPMI-8226 65 µM | SW-620 > 100 µM | SF-539 > 100 µM | SK-MEL-28 > 100 µM | MOLT-4 > 100 µM | TK-10 > 100 µM | HOP-92 > 100 µM | SF-268 > 100 µM | SN12C > 100 µM
active: OVCAR-4 0.0307 µM

O=C(O)CCSC(=O)Nc1ccccc1F
inactive: CAKI-1 > 100 µM | SK-MEL-2 > 100 µM | SR > 100 µM | HCT-116 > 100 µM | RPMI-8226 > 100 µM | OVCAR-4 > 100 µM | SW-620 > 100 µM | SF-539 > 100 µM | SK-MEL-28 > 100 µM | MOLT-4 > 100 µM | TK-10 > 100 µM | SF-268 > 100 µM | SN12C > 100 µM

CC(C)(C)C1CCN(C(=O)c2ccccc2)CC1
inactive: SK-MEL-2 > 100 µM | SR 64.6 µM | HCT-116 53.8 µM | RPMI-8226 46 µM | SW-620 > 100 µM | SF-539 > 100 µM | MOLT-4 47.3 µM | TK-10 > 100 µM | SNB-75 69 µM | SN12C > 100 µM

Cc1ccc2oc(=O)cc(CC(=O)O)c2c1
inactive: CAKI-1 > 100 µM | SK-MEL-2 > 100 µM | HCT-116 > 100 µM | RPMI-8226 > 100 µM | OVCAR-4 > 100 µM | SW-620 > 100 µM | SF-539 > 100 µM | SK-MEL-28 > 100 µM | MOLT-4 > 100 µM | TK-10 > 100 µM | HOP-92 > 100 µM | SF-268 > 100 µM | SNB-75 > 100 µM | SN12C > 100 µM

CCCCCCCCC1C(C)c2c([nH]c3ccccc23)C2C(=O)N(c3ccccc3)C(=O)C21 (stereo not given)
inactive: CAKI-1 14 µM | SK-MEL-2 16 µM | HCT-116 3.27 µM | RPMI-8226 3.4 µM | OVCAR-4 4.3 µM | SW-620 14.8 µM | SF-539 17.3 µM | SK-MEL-28 16.8 µM | MOLT-4 2.27 µM | TK-10 20.1 µM | SNB-75 19 µM | SN12C 11.4 µM

O=C1NC(=O)C(=O)C(c2nc3ccccc3s2)C1=O
inactive: CAKI-1 > 100 µM | SK-MEL-2 > 100 µM | SR > 100 µM | HCT-116 > 100 µM | OVCAR-4 > 100 µM | SW-620 > 100 µM | SF-539 > 100 µM | SK-MEL-28 > 100 µM | MOLT-4 > 100 µM | TK-10 > 100 µM | HOP-92 > 100 µM | SF-268 > 100 µM | SNB-75 > 100 µM | SN12C > 100 µM
